From patent US20090036448A1, “PYRIMIDINE DERIVATIVES AND METHODS OF TREATMENT RELATED TO THE USE THEREOF” (TAISHO PHARMECUTICAL CO., LTD., priority 2004, published 2009) come the findings set out here.

Counter-ions that a name gives are not always drawn. Bounds are passed on as bounds.

One experiment deals with MCH receptor (Homo sapiens, UniProt Q99705). Briefly: FLIPR/FDSS6000 functional assay: intracellular Ca2+ changes evoked by MCH. It counts as cell-based. The settings on record: antagonist activity, 50 nM of MCH, [Ca2+]i by FLIPR or FDSS; read-out: IC50. From the text:
Subsequently, a functional based assay was used to confirm the lead hits, referred to as FLIPR™ (the Fluorometric Imaging Plate Reader) and FDSS6000™ (Functional Drug Screening System). This assay utilized a non-endogenous, constitutively active version of the MCH receptor.
The FLIPR and FDSS assays are able to detect intracellular Ca^2+ concentration in cells, which can be utilized to assess receptor activation and determine whether a candidate compound is an, for example, antagonist, inverse agonist or agonist to a Gq-coupled receptor. The concentration of free Ca^2+ in the cytosol of any cell is extremely low, whereas its concentration in the extracellular fluid and endoplasmic reticulum (ER) is very high. Thus, there is a large gradient tending to drive Ca^2+ into the cytosol across both the plasma membrane and ER. The FLIPR™ and FDSS6000™ systems (Molecular Devices Corporation, HAMAMATSU Photonics K.K.) are designed to perform functional cell-based assays, such as the measurement of intracellular calcium for high-throughput screening. The measurement of fluorescent is associated with calcium release upon activation of the Gq-coupled receptors.
Fluorometric Imaging Plate Reader system was used to allow for rapid, kinetic measurements of intracellular fluorescence in 96 well microplates (or 384 well microplates). Simultaneous measurements of fluorescence in all wells can be made by FLIPR or FDSS6000™ every second with high sensitivity and precision. These systems are ideal for measuring cell-based functional assays such as monitoring the intracellular calcium fluxes that occur within seconds after activation of the Gq coupled receptor.
Briefly, the cells are seeded into 96 well at 5.5×10^4 cells/well with complete culture media (Dulbecco's Modified Eagle Medium with 10% fetal bovine serum, 2 mM L-glutamine, 1 mM sodium pyruvate and 0.5 mg/mL G418, pH 7.4) for the assay next day. On the day of assay, the media is removed and the cells are incubated with 100 μl of loading buffer (4 μM Fluo-4-AM in complete culture media containing 2.5 mM Probenicid, 0.5 mg/ml and 0.2% bovine serum albumin) in 5% CO2 incubator at 37° C. for 1 hr. The loading buffer is removed, and the cells are washed with wash buffer (Hank's Balanced Salt Solution containing 2.5 mM Probenicid, 20 mM HEPES, 0.5 mg/mL and 0.2% bovine serum albumin, pH 7.4). One hundred fifty μl of wash buffer containing various concentrations of test compound is added to the cells, and the cells are incubated in 5% CO2 incubator at 37° C. for 30 min. Fifty μl of wash buffer containing various concentration of MCH are added to each well, and transient changes in [Ca^2+]i evoked by MCH are monitored using the FLIPR or FDSS in 96 well plates at Ex. 488 nm and Em. 530 nm for 290 second. When antagonist activity of compound is tested, 50 nM of MCH is used.
Use of FLIPR™ and FDSS6000™ can be accomplished by following manufacturer's instruction (Molecular Device Corporation and HAMAMATSU Photonics K.K.).
On to `Cc1nc(N[C@H]2CC[C@@H](NC(=O)c3cccc(Cl)c3)CC2)cc(N(C)C)n1` [Example 24, 3-Chloro-N-(cis-4-{[6-(dimethylamino)-2-methylpyrimidin-4-yl]amino}cyclohexyl)-benzamide hydrochloride], for which the IC50 stood at 0.026 µM.

Still in this experiment, the particulars now being: class by percent of control at 10^−7 M or by IC50; antagonist activity, 50 nM of MCH; read-out: class.
`CN(CCO)c1nccc(N[C@H]2CC[C@@H](NC(=O)c3ccc(F)c(F)c3)CC2)n1` [Example 36, 3,4-Difluoro-N-[cis-4-({2-[(2-hydroxyethyl)(methyl)amino]pyrimidin-4-yl}amino)-cyclohexyl]benzamide hydrochloride]: the IC50 was greater than 0.2 µM. Same read-out and setting: then `Cc1cc(N[C@H]2CC[C@@H](NC(=O)c3ccc(F)c(F)c3)CC2)nc(N(C)C)n1` [Example 43, N-(cis-4-{[2-(Dimethylamino)-6-methylpyrimidin-4-yl]amino}cyclohexyl)-3,4-difluorobenzamide hydrochloride], with 0.05 to 0.2 µM; and `Cc1nc(N[C@H]2CC[C@@H](NC(=O)c3ccc(F)c(Cl)c3)CC2)cc(N2CCOCC2)n1` [Example 39, 3-Chloro-4-fluoro-N-{cis-4-[(2-methyl-6-morpholin-4-ylpyrimidin-4-yl)amino]cyclohexyl}-benzamide hydrochloride], with 0.05 to 0.2 µM.

As to `Cc1nc(NC[C@H]2CC[C@@H](NC(=O)c3ccc(F)c(F)c3)CC2)cc(N(C)C)n1` [Example 28, N-[cis-4-({[6-(Dimethylamino)-2-methylpyrimidin-4-yl]amino}methyl)cyclohexyl]-3,4-difluorobenzamide hydrochloride], the IC50 is greater than 0.2 µM.

With `Cc1nc(N[C@H]2CC[C@@H](NC(=O)c3ccc(F)c(Cl)c3)CC2)c(C)c(N(C)C)n1` [Example 180, 3-Chloro-N-(cis-4-{[6-(dimethylamino)-2,5-dimethylpyrimidin-4-yl]amino}cyclohexyl)-4-fluorobenzamide hydrochloride], the IC50 is greater than 0.2 µM. The same measure, in the same setting: next, `Cc1nc(N[C@H]2CC[C@@H](NC(=O)c3cccc(F)c3)CC2)cc(N(C)C)n1` [Example 23, N-(cis-4-{[6-(Dimethylamino)-2-methylpyrimidin-4-yl]amino}cyclohexyl)-3-fluorobenzamide hydrochloride]: 0.05 to 0.2 µM; `CNc1cc(N[C@H]2CC[C@@H](NC(=O)c3ccc(F)c(F)c3)CC2)nc(C)n1` [Example 30, 3,4-Difluoro-N-(cis-4-{[2-methyl-6-(methylamino)pyrimidin-4-yl]amino}cyclohexyl)-benzamide hydrochloride]: greater than 0.2 µM; `O=C(N[C@H]1CC[C@@H](Nc2ncnc3[nH]ccc23)CC1)c1ccc(F)c(Cl)c1` [Example 186, 3-Chloro-4-fluoro-N-[cis-4-(7H-pyrrolo[2,3-d]pyrimidin-4-ylamino)cyclohexyl]benzamide hydrochloride]: greater than 0.2 µM. As for `Cc1nc(N[C@H]2CC[C@@H](NC(=O)c3ccc(F)c(F)c3)CC2)cc(N(C)C)n1` [Example 5, N-(cis-4-{[6-(Dimethylamino)-2-methylpyrimidin-4-yl]amino}cyclohexyl)-3,4-difluorobenzamide hydrochloride], the IC50 was less than 0.05 µM. For the molecule `CNc1cc(N[C@H]2CC[C@@H](NC(=O)c3cc(F)c(F)c(F)c3)CC2)nc(C)n1` [Example 169, 3,4,5-Trifluoro-N-(cis-4-{[2-methyl-6-(methylamino)pyrimidin-4-yl]amino}cyclohexyl)-benzamide hydrochloride], the IC50 lay within 0.05 to 0.2 µM. On the same count and under the same terms, next, `CNc1cc(N[C@H]2CC[C@@H](NC(=O)c3ccc(F)c(Cl)c3)CC2)nc(C)n1` [Example 31, 3-Chloro-4-fluoro-N-(cis-4-{[2-methyl-6-(methylamino)pyrimidin-4-yl]amino}cyclohexyl)-benzamide hydrochloride]: 0.05 to 0.2 µM; `Cc1nc(N[C@H]2CC[C@@H](NC(=O)c3ccc(Cl)cc3)CC2)cc(N(C)C)n1` [Example 25, 4-Chloro-N-(cis-4-{[6-(dimethylamino)-2-methylpyrimidin-4-yl]amino}cyclohexyl)-benzamide hydrochloride]: 0.05 to 0.2 µM. On the same count and under the same terms, then `CN(C)c1cc(NC[C@H]2CC[C@@H](NC(=O)c3ccc(F)c(F)c3)CC2)ncn1` [Example 3, N-[cis-4-({[6-(Dimethylamino)pyrimidin-4-yl]amino}methyl)cyclohexyl]-3,4-difluorobenzamide hydrochloride], with greater than 0.2 µM; and `Cc1nc(N[C@H]2CC[C@@H](NC(=O)c3cccc(OC(F)(F)F)c3)CC2)cc(N(C)C)n1` [Example 18, N-(cis-4-{[6-(Dimethylamino)-2-methylpyrimidin-4-yl]amino}cyclohexyl)-3-(trifluoromethoxy)benzamide hydrochloride], with less than 0.05 µM; and `Cc1cnc(N(C)C)nc1N[C@H]1CC[C@@H](NC(=O)c2ccc(F)c(Cl)c2)CC1` [Example 46, 3-Chloro-N-(cis-4-{[2-(dimethylamino)-5-methylpyrimidin-4-yl]amino}cyclohexyl)-4-fluorobenzamide hydrochloride], with greater than 0.2 µM.

In the case of `CN(C)c1cc(N[C@H]2CC[C@@H](NC(=O)c3ccc(F)c(Cl)c3)CC2)nc(-c2ccccc2)n1` [Example 178, 3-Chloro-N-(cis-4-{[6-(dimethylamino)-2-phenylpyrimidin-4-yl]amino}cyclohexyl)-4-fluorobenzamide hydrochloride], the IC50 was greater than 0.2 µM. Same read-out and setting: then `CN(C)c1nccc(N[C@H]2CC[C@@H](NC(=O)c3ccc(F)c(Cl)c3)CC2)n1` [Example 44, 3-Chloro-N-(cis-4-{[2-(dimethylamino)pyrimidin-4-yl]amino}cyclohexyl)-4-fluorobenzamide hydrochloride], with less than 0.05 µM; and `Cn1cnc2c(N[C@H]3CC[C@@H](NC(=O)c4ccc(F)c(Cl)c4)CC3)ncnc21` [Example 190, 3-Chloro-4-fluoro-N-{cis-4-[(9-methyl-9H-purin-6-yl)amino]cyclohexyl}benzamide hydrochloride], with greater than 0.2 µM. Same read-out and setting: then `Cc1cc(N[C@H]2CC[C@@H](NC(=O)c3ccc(F)c(Cl)c3)CC2)nc(C)n1` [Example 171, 3-Chloro-N-{cis-4-[(2,6-dimethylpyrimidin-4-yl)amino]cyclohexyl}-4-fluorobenzamide hydrochloride], with greater than 0.2 µM; and `Cc1nc(N[C@H]2CC[C@@H](NC(=O)Oc3ccc(Br)cc3)CC2)cc(N(C)C)n1` [Example 184, 4-Bromophenyl (cis-4-{[6-(dimethylamino)-2-methylpyrimidin-4-yl]amino}cyclohexyl)carbamate], with greater than 0.2 µM.

In the case of “N^4-(cis-4-{[Bromo-2-(trifluoromethoxy)benzyl]amino}cyclohexyl)-N^2,N^2-dimethylpyrimidine-2,4-diamine dihydrochloride [Example 42]”, the IC50 is greater than 0.2 µM. `Cc1nc(N[C@H]2CC[C@@H](NC(=O)c3cccc(Cl)c3)CC2)cc(N(C)C)n1` [Example 24, 3-Chloro-N-(cis-4-{[6-(dimethylamino)-2-methylpyrimidin-4-yl]amino}cyclohexyl)-benzamide hydrochloride]: the IC50 is less than 0.05 µM. `Cc1nc(N[C@H]2CC[C@@H](NC(=O)c3cc(F)cc(F)c3)CC2)cc(N(C)C)n1` [Example 13, N-(cis-4-{[6-(Dimethylamino)-2-methylpyrimidin-4-yl]amino}cyclohexyl)-3,5-difluorobenzamide hydrochloride]: the IC50 is 0.05 to 0.2 µM. `CCc1nc(N[C@H]2CC[C@@H](NC(=O)c3ccc(F)c(F)c3)CC2)cc(N(C)C)n1` [Example 32, N-(cis-4-{[6-(Dimethylamino)-2-ethylpyrimidin-4-yl]amino}cyclohexyl)-3,4-difluorobenzamide hydrochloride]: the IC50 is less than 0.05 µM.
